The text below walks through data of US8129396B2, “2-[1H-benzimidazol-2(3H)-ylidene]-2-(pyrimidin-2-yl)acetamides and 2-[benzothiazol-2(3H)-ylidene]-2-(pyrimidin-2-yl)acetamides as kinase inhibitors” (Telik, Inc., priority 2008, dated 2012).

In one experiment the target is T1, Aurora A kinase (Homo sapiens, UniProt O14965).
T1 construct: purchased Upstate Biotech
T1 sequence (O14965 1-403): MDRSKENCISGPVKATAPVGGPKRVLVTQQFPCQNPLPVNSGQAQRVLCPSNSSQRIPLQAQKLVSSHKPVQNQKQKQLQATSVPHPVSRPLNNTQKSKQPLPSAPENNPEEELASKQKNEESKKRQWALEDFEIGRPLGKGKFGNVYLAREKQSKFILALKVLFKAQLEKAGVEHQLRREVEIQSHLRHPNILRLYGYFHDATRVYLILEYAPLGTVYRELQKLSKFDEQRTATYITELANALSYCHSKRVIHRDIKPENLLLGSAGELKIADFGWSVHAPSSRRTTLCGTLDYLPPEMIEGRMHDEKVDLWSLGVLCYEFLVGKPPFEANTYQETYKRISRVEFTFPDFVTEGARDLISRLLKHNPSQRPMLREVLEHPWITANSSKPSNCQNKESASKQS
Put plainly: Aurora A kinase assay (IMAP fluorescence polarization). It counts as biochemical. Conditions: 10 μM ATP; rounded to 1 significant figure; read-out: Aur-A IC50. An outline of the steps:
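Compounds (eight 3-fold dilutions, 2.5% DMSO final) were preincubated 5 min at room temperature with Aurora A kinase in buffer with 1 mM DTT. Reaction with 100 nM fluorescein-PKAtide and 10 μM ATP ran 45 min at room temperature, then was stopped with IMAP binding reagent; fluorescence polarization was read after 30 min.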

In a further experiment the target is T2, Aurora B kinase (Homo sapiens, UniProt Q96GD4).
T2 construct: purchased BPS Bioscience
T2 sequence (Q96GD4 whole entry): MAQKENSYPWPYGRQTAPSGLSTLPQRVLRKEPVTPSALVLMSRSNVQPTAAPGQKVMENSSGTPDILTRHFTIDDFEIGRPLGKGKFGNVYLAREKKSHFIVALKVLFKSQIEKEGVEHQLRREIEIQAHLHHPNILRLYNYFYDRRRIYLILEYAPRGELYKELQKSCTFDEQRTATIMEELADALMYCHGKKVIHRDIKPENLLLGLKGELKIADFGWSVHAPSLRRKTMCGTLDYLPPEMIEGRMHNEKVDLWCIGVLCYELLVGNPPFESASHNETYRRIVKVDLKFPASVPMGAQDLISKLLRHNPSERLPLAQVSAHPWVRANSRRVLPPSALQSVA
Put plainly: Aurora B kinase assay (IMAP fluorescence polarization). Format: biochemical. Conditions: 10 μM ATP; rounded to 1 significant figure; read-out: Aur-B IC50. An outline of the steps:
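Reaction started with 100 nM fluorescein-labelled PKAtide and 10 μM ATP, run 45 min at room temperature, then stopped with IMAP binding reagent (1:400). After 30 min shaking at room temperature, fluorescence polarization read; run in duplicate with solvent control.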

In another experiment the target is T3, VEGFR2 kinase (Homo sapiens, UniProt P35968).
T3 construct: purchased Cell Signaling Technology
T3 sequence (P35968 20-1356): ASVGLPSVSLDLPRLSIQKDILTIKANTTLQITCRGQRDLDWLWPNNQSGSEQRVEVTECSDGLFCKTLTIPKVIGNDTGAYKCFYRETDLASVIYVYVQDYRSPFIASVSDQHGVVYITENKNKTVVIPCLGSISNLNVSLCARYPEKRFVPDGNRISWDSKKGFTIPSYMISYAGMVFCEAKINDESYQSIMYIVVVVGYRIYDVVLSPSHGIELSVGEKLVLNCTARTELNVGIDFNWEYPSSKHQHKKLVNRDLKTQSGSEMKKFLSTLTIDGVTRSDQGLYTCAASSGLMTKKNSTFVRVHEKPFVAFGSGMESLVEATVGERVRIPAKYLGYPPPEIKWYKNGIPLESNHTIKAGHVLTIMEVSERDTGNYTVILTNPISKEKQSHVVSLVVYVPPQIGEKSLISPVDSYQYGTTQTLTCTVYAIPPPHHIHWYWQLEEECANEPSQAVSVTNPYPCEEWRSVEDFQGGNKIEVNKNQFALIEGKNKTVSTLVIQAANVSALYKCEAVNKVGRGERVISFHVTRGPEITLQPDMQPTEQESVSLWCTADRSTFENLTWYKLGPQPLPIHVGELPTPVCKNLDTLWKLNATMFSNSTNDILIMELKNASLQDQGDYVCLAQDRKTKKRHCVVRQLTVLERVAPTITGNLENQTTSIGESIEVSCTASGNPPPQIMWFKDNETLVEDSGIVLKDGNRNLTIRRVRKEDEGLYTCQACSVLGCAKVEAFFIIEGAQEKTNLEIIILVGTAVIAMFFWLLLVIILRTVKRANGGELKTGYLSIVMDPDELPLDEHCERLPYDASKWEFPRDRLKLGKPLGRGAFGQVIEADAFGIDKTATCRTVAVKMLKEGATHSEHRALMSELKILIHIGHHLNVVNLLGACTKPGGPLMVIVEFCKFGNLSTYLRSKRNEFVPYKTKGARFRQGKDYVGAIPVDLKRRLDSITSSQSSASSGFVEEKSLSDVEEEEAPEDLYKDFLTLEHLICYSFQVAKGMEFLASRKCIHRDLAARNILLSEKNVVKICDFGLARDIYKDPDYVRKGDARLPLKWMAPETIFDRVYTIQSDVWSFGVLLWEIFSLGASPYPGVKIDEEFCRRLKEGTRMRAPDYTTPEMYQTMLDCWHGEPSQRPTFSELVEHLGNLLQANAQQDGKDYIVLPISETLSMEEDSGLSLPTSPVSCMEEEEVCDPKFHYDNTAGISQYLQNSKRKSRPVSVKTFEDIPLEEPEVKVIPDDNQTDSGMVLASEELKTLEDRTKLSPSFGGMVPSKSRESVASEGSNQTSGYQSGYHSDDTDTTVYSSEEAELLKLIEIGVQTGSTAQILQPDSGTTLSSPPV
Put plainly: VEGFR2 kinase assay. It counts as biochemical. Conditions: 6 μM ATP, 1 mM MnCl2; rounded to 1 significant figure. An outline of the steps: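 VEGFR2 phosphorylates CSKtide with 6 μM ATP and 1 mM MnCl2 for 1 hr, otherwise following the Aurora A kinase protocol. Detection by IMAP fluorescence polarization, binding reagent diluted 1:1200 in 1:1 binding buffer A/B. Run in duplicate with solvent control.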

The next experiment deals with p-H3 in HCT116 cells. The experiment in a line: Histone phosphorylation (p-H3) assay. It counts as cell-based. The following applies: Homo sapiens, HCT-116; HCT116 cells, 4 hr incubation; read-out: p-H3 IC50. An outline of the steps: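 HCT116 cells (2.5×10^4/well, attached overnight) treated 4 h with 8-point 3-fold compound dilutions at 0.5% DMSO. Lysates dot-blotted onto nitrocellulose and probed for p-H3 with β-actin on the same membrane, fluorescent secondary antibodies, Odyssey scan; duplicate wells.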

Experiment [1] concerns HCT116 (human colon carcinoma) cells. The experiment in a line: HCT116 cytotoxicity assay (CellTiter-Glo). Format: cell-based. Conditions: HCT-116, 72 h, cytotoxicity, three days culture, read-out: HCT116 IC50.
For experiment [2], the system named is HL60 (human promyelocytic leukemia) cells. The experiment in a line: HL60 cytotoxicity assay (CellTiter-Glo). Format: cell-based. The following applies: HL-60, 72 h, cytotoxicity, three days culture, read-out: HL60 IC50. From the text:
The cell lines HL60 (human promyelocytic leukemia) and HCT116 (human colon carcinoma) were obtained from the American Type Culture Collection, Manassas, Va., U.S.A., and HUVEC-2 (human umbilical vein endothelial cells) from BD Biosciences, Bedford, Mass., U.S.A. Aurora A kinase was obtained from Upstate Biotech, Billerica, Mass., U.S.A.; Aurora B kinase from BPS Bioscience, San Diego, Calif., U.S.A.; and VEGFR2 kinase from Cell Signaling Technology, Danvers, Mass., U.S.A. The IMAP FP Screening Express kit was obtained from Molecular Devices, Sunnyvale, Calif., U.S.A.; the CellTiter-Glo assay kit from Promega Corporation, Madison, Wis., U.S.A.; and the Cellular DNA Cytometric Analysis Reagent Kit and BrdU labeling and detection kit from Roche Diagnostics Corporation, Indianapolis, Ind., U.S.A. All products were used in accordance with manufacturer's directions. Kinase inhibition assays and the histone phosphorylation (p-H3) assay were conducted in duplicate, and the cytotoxicity and HUVEC proliferation assays were conducted in triplicate, in each case with solvent control.
Log-phase cells were trypsinized, collected by centrifugation, and resuspended in a small volume of fresh medium, and the density of viable cells was determined following Trypan Blue staining. Cells were diluted in fresh media (1×10^4 cells/mL for HL60 and 4×10^4 cells/mL for HCT116 cells), the test compounds (concentrations between 0.1 μM and 200 μM, dissolved in DMSO, 50 μL) added immediately after dilution to achieve a final DMSO concentration of 0.5%, then the suspensions added at 150 μL/well to 96-well plates, and incubated overnight to allow attachment in the case of adherent cells. The cells were cultured for three days (about three doubling times). The cells were then collected by centrifugation, and 100 μL of the culture supernatant was replaced by the CellTiter-Glo reagent. After incubation for 15 minutes at room temperature, the plate was read with a luminometer.

Experiment [3] deals with HUVEC-2 (human umbilical vein endothelial cells). The experiment in a line: HUVEC VEGF-dependent proliferation assay (BrdU). It counts as cell-based. Conditions: VEGF (25 ng/mL)-dependent proliferation, read-out: HUVEC IC50. An outline of the steps:
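HUVEC-2 cells on gelatin got serially diluted compound (0.5% DMSO final), and VEGF (25 ng/mL) was added 2 hr later. BrdU (10 μM) went in after one day, with labelling for another day. VEGF-dependent proliferation was read by BrdU detection, in triplicate.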

Structures are written as SMILES.

For `CC(C)(N)C(=O)Nc1ccc2c(c1)N/C(=C(/C(N)=O)c1nccc(C(F)(F)F)n1)N2` [Compound 81A], the IC50 on Aurora A kinase is 6 nM; at Aurora B kinase it was 7 nM; on VEGFR2 kinase, 9 nM; with p-H3 in HCT116 cells it was 90 nM; in experiment [1] it was 300 nM; in experiment [2], 200 nM. In addition, the IC50 in experiment [3] is 80 nM.

Regarding `NC(=O)/C(=C1\Nc2ccc(NC(=O)CCN3CCOCC3)cc2N1)c1nccc(C(F)(F)F)n1` [Compound 84A], the IC50 on Aurora A kinase is 7 nM; on Aurora B kinase, 9 nM; against VEGFR2 kinase, 20 nM; in the experiment with p-H3 in HCT116 cells, 100 nM; in experiment [1], 200 nM; in experiment [2], 100 nM. Further, the IC50 in experiment [3] stood at 60 nM.

`NC(=O)/C(=C1\Nc2ccc(C(=O)NCCN3CCOCC3)cc2N1)c1nccc(C(F)(F)F)n1` [Compound 53A]: the IC50 at Aurora A kinase was determined as 3 nM; on Aurora B kinase, 10 nM; against VEGFR2 kinase it was 20 nM; with p-H3 in HCT116 cells, 200 nM; in experiment [1], 300 nM; in experiment [2], 200 nM. The IC50 in experiment [3] was 30 nM.

For `CCN(CCCn1ccnc1)C(=O)c1ccc2c(c1)N/C(=C(/C(N)=O)c1nccc(C(F)(F)F)n1)N2` [Compound 48A], the IC50 on Aurora A kinase is 10 nM; at Aurora B kinase it was 1 nM; against VEGFR2 kinase it was 10 nM; in the experiment with p-H3 in HCT116 cells it was 300 nM; in experiment [1] it was 600 nM; in experiment [2], 100 nM. Besides, in experiment [3], the IC50 was 40 nM.

In the case of `NC(=O)/C(=C1\Nc2ccc(NC(=O)CCn3ccnc3)cc2N1)c1nccc(C(F)(F)F)n1` [Compound 87A], the IC50 on Aurora A kinase stood at 8 nM; on Aurora B kinase it was 9 nM; against VEGFR2 kinase, 10 nM; with p-H3 in HCT116 cells, 200 nM; in experiment [1] it was 200 nM; in experiment [2], 100 nM. The IC50 in experiment [3] is 90 nM.

Consider `NC(=O)/C(=C1\Nc2ccc(CCN3CCSCC3)cc2S1)c1nccc(C(F)(F)F)n1` [Compound 103A], for which the IC50 on Aurora A kinase is 20 nM; on Aurora B kinase, 10 nM; against VEGFR2 kinase, 20 nM; in the experiment with p-H3 in HCT116 cells, 2000 nM; in experiment [1], 2000 nM; in experiment [2] it was 100 nM. The IC50 in experiment [3] was 100 nM.

With `NC(=O)/C(=C1\Nc2ccc(C(=O)NCCN3CCC(F)(F)CC3)cc2N1)c1nccc(C(F)(F)F)n1` [Compound 51A], the IC50 on Aurora A kinase was found to be 7 nM; at Aurora B kinase, 6 nM; on VEGFR2 kinase it was 20 nM; in the experiment on p-H3 in HCT116 cells it was 300 nM; in experiment [1], 500 nM; in experiment [2], 50 nM. Further, in experiment [3], the IC50 was 30 nM.

Consider `CN(C)CC(=O)Nc1ccc2c(c1)N/C(=C(/C(N)=O)c1nccc(C(F)(F)F)n1)N2` [Compound 73A], for which the IC50 was found to be 10 nM at Aurora A kinase; 5 nM at Aurora B kinase; 6 nM at VEGFR2 kinase; 100 nM with p-H3 in HCT116 cells; 200 nM in experiment [1]; 200 nM in experiment [2]. Further, the IC50 in experiment [3] stood at 100 nM.

In the case of `NC(=O)/C(=C1\Nc2ccc(CCN3CCS(=O)(=O)CC3)cc2S1)c1nccc(C(F)(F)F)n1` [Compound 100A], the IC50 is 5 nM at Aurora A kinase; 9 nM at Aurora B kinase; 10 nM at VEGFR2 kinase; 300 nM in the experiment on p-H3 in HCT116 cells; 400 nM in experiment [1]; 90 nM in experiment [2]. Also, in experiment [3], the IC50 was found to be 20 nM.

As for `NC(=O)/C(=C1\Nc2ccc(C(=O)NCCCn3ccnc3)cc2N1)c1nccc(C(F)(F)F)n1` [Compound 45A], the IC50 is 20 nM at Aurora A kinase; 7 nM at Aurora B kinase; 20 nM at VEGFR2 kinase; 900 nM in the experiment with p-H3 in HCT116 cells; 500 nM in experiment [1]; 100 nM in experiment [2]. The IC50 in experiment [3] is 10 nM.

As to `NC(=O)/C(=C1\Nc2ccc(C(=O)NCCN3CCOCC3)cc2S1)c1nccc(C(F)(F)F)n1` [Compound 54A], the IC50 turned out to be 6 nM on Aurora A kinase; 10 nM at Aurora B kinase; 10 nM at VEGFR2 kinase; 400 nM with p-H3 in HCT116 cells; 400 nM in experiment [1]; 300 nM in experiment [2]. Further, the IC50 in experiment [3] amounted to 30 nM.

With `NC(=O)/C(=C1\Nc2ccc(NC(=O)Cn3ccnc3)cc2N1)c1nccc(C(F)(F)F)n1` [Compound 86A], the IC50 on Aurora A kinase was determined as 4 nM; at Aurora B kinase it was 8 nM; against VEGFR2 kinase it was 30 nM; in the experiment with p-H3 in HCT116 cells it was 200 nM; in experiment [1] it was 400 nM; in experiment [2] it was 800 nM. Further, the IC50 in experiment [3] worked out at 30 nM.

For the compound `NC(=O)C(=C1Nc2cc(F)c(F)cc2N1)c1nccc(C(F)(F)F)n1` [Compound 38A], the IC50 on Aurora A kinase was 40 nM; on Aurora B kinase it was 10 nM; on VEGFR2 kinase it was 200 nM; in the experiment with p-H3 in HCT116 cells it was 300 nM; in experiment [1], 800 nM; in experiment [2], 1000 nM. In addition, the IC50 in experiment [3] worked out at 100 nM.

Turning to `NC(=O)/C(=C1\Nc2cc(NC(=O)Cn3ccnc3)ccc2S1)c1nccc(C(F)(F)F)n1` [Compound 88A], the IC50 on Aurora A kinase came to 4 nM; at Aurora B kinase, 8 nM; at VEGFR2 kinase, 20 nM; with p-H3 in HCT116 cells, 60 nM; in experiment [1], 300 nM; in experiment [2], 100 nM. Also, the IC50 in experiment [3] is 300 nM.

In the case of `NC(=O)/C(=C1\Nc2ccccc2S1)c1nccc(C(F)(F)F)n1` [Compound 2A], the IC50 was 30 nM at Aurora A kinase; 6 nM at Aurora B kinase; 90 nM on VEGFR2 kinase; 2000 nM in the experiment on p-H3 in HCT116 cells; 2000 nM in experiment [1]; 3000 nM in experiment [2]. For the same compound, the IC50 in experiment [3] was 50 nM.

Consider `CN1CCC(C(=O)Nc2ccc3c(c2)N/C(=C(/C(N)=O)c2nccc(C(F)(F)F)n2)N3)CC1` [Compound 140A], for which the IC50 was 6 nM at Aurora A kinase; 9 nM at Aurora B kinase; 20 nM against VEGFR2 kinase; 400 nM in the experiment with p-H3 in HCT116 cells; 400 nM in experiment [1]; 300 nM in experiment [2]. Further, the IC50 in experiment [3] worked out at 20 nM.

For `NC(=O)/C(=C1\Nc2ccc(CN3CCNCC3)cc2S1)c1nccc(C(F)(F)F)n1` [Compound 94A], the IC50 at Aurora A kinase was 7 nM; at Aurora B kinase it was 7 nM; on VEGFR2 kinase, 10 nM; with p-H3 in HCT116 cells it was 80 nM; in experiment [1], 200 nM; in experiment [2], 100 nM. Moreover, the IC50 in experiment [3] came to 50 nM.
